Measured values: PMC3556479 (Biochemistry, 2013)

Legend:
Assay type in all cases: biochemical
[1] = molecular target: T1, orotidine 5′-monophosphate decarboxylase (OMPDC) (Saccharomyces cerevisiae, UniProt P03962, S2H/C155S/A160S/N267D)
T1 sequence (P03962 2-267 S2H/C155S/A160S/N267D): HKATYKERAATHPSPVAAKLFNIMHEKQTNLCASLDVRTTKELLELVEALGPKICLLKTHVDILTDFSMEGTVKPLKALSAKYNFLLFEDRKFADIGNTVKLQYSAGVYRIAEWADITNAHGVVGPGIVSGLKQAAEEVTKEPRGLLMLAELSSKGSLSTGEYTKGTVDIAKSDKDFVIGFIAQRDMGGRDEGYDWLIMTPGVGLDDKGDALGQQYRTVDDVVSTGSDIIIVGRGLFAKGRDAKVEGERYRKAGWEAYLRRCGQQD

[2] = molecular target: T1, orotidine 5′-monophosphate decarboxylase (OMPDC); remark: listed apart in the source
[3] = molecular target: T2, orotidine 5′-monophosphate decarboxylase (OMPDC) (Saccharomyces cerevisiae, UniProt P03962, A160S/C155S/N267D/S2H); assay: activation of FEO decarboxylation by added phosphite, nonlinear fit to eq […]
T2 sequence (P03962 2-267 S2H/C155S/A160S/N267D): T1 sequence (P03962 2-267 S2H/C155S/A160S/N267D)

With C[C@H]1O[C@@H](n2c(C(=O)O)c(F)c(=O)[nH]c2=O)[C@H](O)[C@@H]1O [5′-dFO, 5′-Deoxy-5-fluoroorotidine] the “HPLC initial-velocity decarboxylation assay, purified yeast OMPDC, with and with” value [1] was 0.078 M^−1 s^−1 (kcat/Km).
In the case of O=C(O)c1c(F)c(=O)[nH]c(=O)n1[C@@H]1OC[C@@H](O)[C@H]1O [FEO, 1-(β-D-Erythrofuranosyl)-5-fluoroorotic acid], the “spectrophotometric decarboxylation assay at 282 nm, purified yeast OMPDC, with a” value [2] is reported as 10 M^−1 s^−1 (kcat/Km).
Work on O=[PH](O)O [HPO3^2−, phosphite dianion] yielded a Kd [3] of 100 mM.
